Assay [1] deals with Human alphaherpesvirus 1. The assay is described as follows: Evaluated for antiviral activity against cutaneous HSV-1 C42 infections in guinea pig; Active. The format is functional, organism-based.
Assay [2] has as its system Human alphaherpesvirus 1. The assay can be described thus: Evaluated for antiviral activity against cutaneous HSV-1 C42 infections in guinea pig; Not active. Type of assay: functional, organism-based.

The source made the active and inactive calls. The calls are words filed in the database; no cut-off is given here.

The record followed here is ChEMBL document CHEMBL1122332, “Synthesis of esters of phosphonoformic acid and their antiherpes activity” (J Med Chem, 1983).

For the molecule `CCOC(=O)c1ccc(OC(=O)P(=O)(O)O)cc1`, the Effect entry in the assay on Human alphaherpesvirus 1 [1] was “Active”.
Consider `O=C(OC1CCCCC1)P(=O)(O)O`, for which the Effect result with Human alphaherpesvirus 1 [2] was “inactive”.
Same read-out and setting: for `COC(=O)P(=O)(O)Oc1ccc2c(c1)CCC2` the value was “inactive”; for `CCOP(=O)(OCC)C(=O)Oc1ccc(Cl)cc1`, “inactive”.
Consider `COP(=O)(O)C(=O)Oc1ccccc1`, for which the Effect entry in the assay on Human alphaherpesvirus 1 [1] is “Active”.
`CCOP(=O)(O)C(=O)Oc1ccc(Cl)cc1`: the Effect entry in the assay with Human alphaherpesvirus 1 [1] was “Active”.
On the same count and under the same terms, the result for `Cc1ccc(OC(=O)P(=O)(O)O)cc1` reads “Active”.
For `O=C(OCc1ccccc1)P(=O)(O)O`, the Effect result in the assay on Human alphaherpesvirus 1 [2] is “inactive”.
Take `O=C(Oc1ccccc1)P(=O)(O)O`: the Effect entry with Human alphaherpesvirus 1 [1] is “Active”.
As for `CCOC(=O)c1ccc(OC(=O)P(=O)(OCC)OCC)cc1`, the Effect result in the assay with Human alphaherpesvirus 1 [2] is “inactive”.
In the case of `O=C(O)P(=O)(O)O`, the Effect entry in the assay on Human alphaherpesvirus 1 [1] is “Active”.
With `CCCCOP(=O)(O)C(=O)OC`, in the assay with Human alphaherpesvirus 1 [2], the Effect result was “inactive”.
`CCOP(=O)(OCC)C(=O)Oc1ccc(OC)cc1`: the Effect result in the assay on Human alphaherpesvirus 1 [2] was “inactive”.
For `CCOP(=O)(Oc1ccc(Cl)cc1)C(=O)Oc1ccccc1` (configuration not stated), in the assay with Human alphaherpesvirus 1 [1], the Effect entry is “Active”.
On to `CCCCOC(=O)P(=O)(O)O`, for which the Effect entry in the assay on Human alphaherpesvirus 1 [2] was “inactive”.
Still for that read-out and setting: for `CC(C)OP(=O)(OC(C)C)C(=O)Oc1ccc([N+](=O)[O-])cc1` the value was “inactive”.
With `Cc1ccc(OP(=O)(Oc2ccc(C)cc2)C(=O)Oc2ccccc2)cc1`, the Effect result with Human alphaherpesvirus 1 [1] is “Active”.
For the molecule `COC(=O)P(=O)(O)Oc1c(C)cccc1C`, in the assay with Human alphaherpesvirus 1 [2], the Effect result is “inactive”.
As to `CCOC(=O)P(=O)(O)OCC`, in the assay with Human alphaherpesvirus 1 [2], the Effect entry was “inactive”.
On the same count and under the same terms, the result for `COC(=O)P(=O)(OC)Oc1ccc(C(C)=O)cc1` (configuration not stated) reads “inactive”.
Consider `CCOP(=O)(O)C(=O)Oc1ccc(OC)cc1`, for which the Effect result in the assay on Human alphaherpesvirus 1 [1] was “Active”.
Regarding `O=C(OCC1CCCC1)P(=O)(O)O`, in the assay with Human alphaherpesvirus 1 [2], the Effect entry was “inactive”.
As to `CCOP(=O)(Oc1c(C)cccc1C)C(=O)OC` (configuration not stated), the Effect result with Human alphaherpesvirus 1 [2] is “inactive”.
As to `COC(=O)P(=O)(OC(C)C)OC(C)C`, the Effect entry in the assay with Human alphaherpesvirus 1 [2] is “inactive”.
Regarding `COc1ccc(OP(=O)(O)C(=O)O)cc1`, the Effect entry in the assay on Human alphaherpesvirus 1 [1] is “Active”.
Consider `CCOC(=O)P(=O)(O)O`, for which the Effect result in the assay on Human alphaherpesvirus 1 [2] is “inactive”.
For the molecule `CC(C)OC(=O)P(=O)(O)O`, the Effect entry in the assay on Human alphaherpesvirus 1 [2] is “inactive”.
Consider `CCCCOP(=O)(OCCCC)C(=O)OC`, for which the Effect entry in the assay on Human alphaherpesvirus 1 [2] was “inactive”.
As to `Cc1ccc(OP(=O)(O)C(=O)O)cc1`, in the assay on Human alphaherpesvirus 1 [1], the Effect result is “Active”.
Regarding `Cc1ccc(OP(=O)(O)C(=O)Oc2ccccc2)cc1`, the Effect entry in the assay with Human alphaherpesvirus 1 [1] is “Active”.
In the case of `CCOC(=O)P(=O)(O)Oc1ccccc1`, the Effect result with Human alphaherpesvirus 1 [2] is “inactive”.
For the molecule `CCOP(=O)(Oc1ccc2c(c1)CCC2)C(=O)OC` (configuration not stated), the Effect result in the assay on Human alphaherpesvirus 1 [2] was “inactive”.
On to `O=C(O)P(=O)(O)Oc1ccccc1`, for which, in the assay with Human alphaherpesvirus 1 [1], the Effect result was “Active”.
Take `COP(=O)(OC)C(=O)OCC1CCCC1`: the Effect entry in the assay with Human alphaherpesvirus 1 [2] was “inactive”.
For `O=C(Oc1ccc(Cl)c(Cl)c1)P(=O)(O)O`, the Effect result in the assay on Human alphaherpesvirus 1 [1] was “Active”.
As for `COP(=O)(OC)C(=O)Oc1ccc(C)cc1`, the Effect entry in the assay with Human alphaherpesvirus 1 [2] was “inactive”.
For the molecule `COc1ccc(OC(=O)P(=O)(O)O)cc1`, the Effect result with Human alphaherpesvirus 1 [1] is “Active”.
On to `CCOC(=O)c1ccc(OC(=O)P(=O)(OC)OC)cc1`, for which, in the assay on Human alphaherpesvirus 1 [2], the Effect result is “inactive”.
For `COP(=O)(OC)C(=O)OCc1ccccc1`, the Effect result in the assay on Human alphaherpesvirus 1 [2] is “inactive”.
As to `CCOP(=O)(O)C(=O)O`, the Effect entry in the assay with Human alphaherpesvirus 1 [1] was “Active”.
For the molecule `COP(=O)(OC)C(=O)Oc1ccc(Cl)c(Cl)c1`, in the assay on Human alphaherpesvirus 1 [2], the Effect result was “inactive”.
`COP(=O)(OC)C(=O)Oc1ccc([N+](=O)[O-])cc1`: in the assay on Human alphaherpesvirus 1 [2], the Effect entry was “inactive”.
`CCOP(=O)(Oc1ccc(OC)cc1)C(=O)Oc1ccccc1` (configuration not stated): the Effect result with Human alphaherpesvirus 1 [1] is “Active”.
Regarding `COP(=O)(OC)C(=O)OC(C)C`, the Effect result with Human alphaherpesvirus 1 [2] is “inactive”.
Turning to `O=C(O)P(=O)(O)Oc1ccc2c(c1)CCC2`, the Effect entry in the assay on Human alphaherpesvirus 1 [1] is “Active”.
Take `COP(=O)(O)C(=O)O`: the Effect result in the assay on Human alphaherpesvirus 1 [1] is “Active”.
Consider `O=C(Oc1ccccc1)P(=O)(O)Oc1ccccc1`, for which the Effect entry in the assay with Human alphaherpesvirus 1 [1] is “Active”.
With `COP(=O)(O)C(=O)OCc1ccccc1`, in the assay on Human alphaherpesvirus 1 [2], the Effect entry is “inactive”.
`COP(=O)(OC)C(=O)Oc1ccccc1`: the Effect result in the assay on Human alphaherpesvirus 1 [2] is “inactive”.
As to `O=C(Oc1ccccc1)P(=O)(Oc1ccccc1)Oc1ccccc1`, the Effect entry in the assay on Human alphaherpesvirus 1 [1] is “Active”.
Still for that read-out and setting: the result for `Cc1cccc(C)c1OP(=O)(O)C(=O)O` reads “Active”.
Turning to `COC(=O)P(=O)(OC)OC12CC3CC(CC(C3)C1)C2` (configuration not stated), the Effect result in the assay on Human alphaherpesvirus 1 [2] is “inactive”.
With `CCCCOC(=O)P(=O)(OC)OC`, the Effect entry with Human alphaherpesvirus 1 [2] is “inactive”.
Consider `COP(=O)(OC)C(=O)OC1CCCCC1`, for which the Effect result in the assay with Human alphaherpesvirus 1 [2] is “inactive”.
`O=C(O)P(=O)(O)OC12CC3CC(CC(C3)C1)C2`: the Effect entry in the assay with Human alphaherpesvirus 1 [1] is “Active”.
For `CCOP(=O)(Oc1ccc(C(C)=O)cc1)C(=O)OC` (configuration not stated), the Effect result in the assay on Human alphaherpesvirus 1 [2] was “inactive”.
Turning to `O=C(Oc1ccc(Cl)cc1)P(=O)(O)O`, the Effect result with Human alphaherpesvirus 1 [1] is “Active”.
